According to patent US5021438A, “1,3,4,5-tetrahydrobenz(c,d)indoles” (Bayer Aktiengesellschaft, priority 1988, dated 1991):
pKi: −log10 of the molar value. Structures can show the parent of a compound that is named as a salt.

The compounds below were run against 5-HT1 receptor (assay: Affinity for the 5-HT1 receptor (receptor binding, 3H-serotonin radioligand, calf hippocampus membranes)). Details: calf hippocampus membrane preparations; 3H-Serotonin as radioligand.
Source text: Affinity for the 5-HT1 receptor
The high affinity of the compounds according to the invention for 5-hydroxytryptamine receptors of the subtype 1 is represented by way of example in Table 1. The values indicated are data which have been determined from receptor binding studies with calf hippocampus membrane preparations. 3H-Serotonin was used for this as a radioactively labelled ligand.

| Structure (SMILES) | pKi |
| --- | --- |
| O=C1c2ccccc2S(=O)(=O)N1CCCCNC1Cc2cccc3[nH]cc(c23)C1 (stereo not drawn) [Example 2, 4-[4-(N-1,2-Benzisothiazol-3(2H)-one-1,1-dioxide-yl)]-butylamino-1,3,4,5-tetrahydrobenz[c,d]indole] | 8.70 |
| CCCN(CCNS(C)(=O)=O)C1Cc2c[nH]c3ccc(OC)c(c23)C1 (stereo not drawn) [Example 6, 6-Methoxy-4-[N-propyl-N-(methylsulphonylamidoethyl)]-amino-1,3,4,5-tetrahydrobenz[c,d]indole] | 8.22 |
| COc1ccc2[nH]cc3c2c1CC(NCCCCN1C(=O)c2ccccc2S1(=O)=O)C3 (stereo not drawn) [Example 1, 6-Methoxy-4-[4-(N-1,2-benzisothiazol-3(2H)-one-1,1-dioxide-yl)]-butylamino-1,3,4,5-tetrahydrobenz[c,d]indole hydrochloride] | 8.70 |
| CCCN(CCNC(=O)OCC)C1Cc2c[nH]c3ccc(OC)c(c23)C1 (stereo not drawn) [Example 5, 6-Methoxy-4-[N-propyl-N-(ethyloxycarbonylaminoethyl)]amino-1,3,4,5-tetrahydrobenz[c,d]indole] | 9.00 |

Second part, the compound after the results:

| pKi | Structure (SMILES) |
| --- | --- |
| 8.10 | CCCN(CCS(=O)(=O)N(C)C)C1Cc2c[nH]c3ccc(OC)c(c23)C1 (stereo not drawn) [Example 15, 6-Methoxy-4-[N-propyl-N-(dimethylsulphamoylethyl)]-amino-1,3,4,5-tetrahydrobenz[c,d]indole] |
| 9.00 | CCCN(CCNS(=O)(=O)c1ccc(C)cc1)C1Cc2c[nH]c3ccc(OC)c(c23)C1 (stereo not drawn) [Example 8, 6-Methoxy-4-[N-propyl-N-(tosylamidoethyl)]-amino-1,3,4,5-tetrahydrobenz[c,d]indole hydrochloride] |
| 9.15 | COc1ccc2[nH]cc3c2c1CC(NCCCNS(=O)(=O)c1ccc(F)cc1)C3 (stereo not drawn) [Example 18, 6-Methoxy-4-(4-fluorophenylsulphonylamidopropyl)-amino-1,3,4,5-tetrahydrobenz[c,d]indole hydrochloride] |
| 8.70 | CCCN(CCNS(=O)(=O)c1ccc2ccccc2c1)C1Cc2c[nH]c3ccc(OC)c(c23)C1 (stereo not drawn) [Example 9, 6-Methoxy-4-[N-propyl-N-(naphthylsulphonylamidoethyl)]-amino-1,3,4,5-tetrahydrobenz[c,d]indole hydrochloride] |

The compounds below were run on "behavioral despair" behavior (assay: "behavioral despair" behavior according to Porsolt et al.). Details: according to Porsolt et al. 1977.
Type: in vivo
Source text: Furthermore, the antidepressive action properties of the compounds were investigated. For this, the influence of the compounds on the so-called "behavioral despair" behavior was investigated according to Porsolt et al. Arch. Int. Pharmacodyn. Ther. 229, 327 (1977).

| Structure (SMILES) | influence on "behavioral despair" behavior (antidepressive action) |
| --- | --- |
| COc1ccc2[nH]cc3c2c1CC(NCCCCN(C)S(=O)(=O)c1ccc(F)cc1)C3 (stereo not drawn) [Example 4, 6-Methoxy-4-[4-(N-4-fluorobenzenesulfonyl-N-methyl)amidobutyl]-amino-1,3,4,5-tetrahydrobenz[c,d]indole hydrochloride] | positive action |
| CCCCS(=O)(=O)NCCN(CCC)C1Cc2c[nH]c3ccc(OC)c(c23)C1 (stereo not drawn) [Example 7] | positive action |
| COc1ccc2[nH]cc3c2c1CC(NCCCCN1Cc2ccccc2S1(=O)=O)C3 (stereo not drawn) [Example 3, 6-Methoxy-4-[4-(N-2,3-dihydro-1,2-benzisothiazol-1,1-dioxid-yl)]-butylamino-1,3,4,5-tetrahydrobenz[c,d]indole hydrochloride] | positive action |
| CCCNC1Cc2c[nH]c3ccc(OC)c(c23)C1 (stereo not drawn) [Example 13, 6-Methoxy-4-propylamino-1,3,4,5-tetrahydrobenz[c,d]indole] | positive action |
